Assay results as given in patent US20230192789A1, “STRUCTURALLY-STABILIZED AND HDMX-SELECTIVE P53 PEPTIDES AND USES THEREOF” (Dana-Farber Cancer Institute, Inc., priority 2020, published 2023).
“Also recorded” adds a separate entry of the source. Bridges are numbered along the chain shown (N, C = ends). [ ]: non-standard residue; d: D form. The star is where a group is joined. Biotin = O=C1N[C@H]2[C@H](CS[C@H]2CCCCC(=O)*)N1; R8 = C=CCCCCCC[C@@](C)(N)C(=O)O; S5 = C=CCCC[C@](C)(N)C(=O)O

Experiments:
OCI-AML2 cells [1] = assay: Cell viability (CellTiter-Glo), OCI-AML2; settings: OCI-AML2, 48 and 72 hours of treatment, acetylated stapled peptide
EOL-1 cancer cells = assay: Cell viability, EOL-1; settings: EOL-1, 48 and 72 hours of treatment, acetylated stapled peptide
OCI-AML2 cells [2] = assay: LDH release assay, OCI-AML2; format: cell-based; settings: OCI-AML2, 90 minutes after peptide treatment, highest dosing level
Experimental: (§1) LDH release assay: To assess the release of lactate dehydrogenase (LDH) upon treatment with a structurally-stabilized peptide described herein, an LDH release assay can be used. Cultured cells, including, e.g., cancer cells and HUVEC cells, are plated in 96-well format (2x10^4 cells per well; including overnight incubation for adherent cells) and then treated with serial dilutions of structurally-stabilized peptides in a final volume of 100 µL and incubated at 37° C. for the indicated time period (e.g., 90 minutes). The plates are spun down at 1500 rpm for 5 minutes at 4° C., and 80 µL of cell culture media is transferred to a clear plate (Corning), incubated with 80 µL of LDH reagent (Roche) for 15 minutes while shaking, and absorbance is measured at 490 nm on a microplate reader (SpectraMax M5 Microplate Reader, Molecular Devices).
(§2) LDHRelease Assay: OCI-AML2 cells (1 × 10^4 cells/well) were plated in 96-well plates and treated with the indicated peptides or vehicle (0.2% DMSO). After 1.5 hours incubation at 37° C., 100 µl of cell medium was transferred to a 96-well clear plate and incubated with 100 µl of LDH reagent (Roche) for 25 minutes while shaking, and absorbance at 490 nm measured on a microplate reader (SpectraMax M5 Microplate Reader, Molecular Devices).

[3] = target: T1, recombinant HDMX (amino acids 1-490 of SEQ ID NO:104) (Homo sapiens, UniProt O15151); assay: Competitive streptavidin pull-down of biotinylated peptides with 1:1 recombinant HDM2/HDMX mixture, HDMX western; format: binding; settings: biotinylated stapled peptide, 1:1 mixture of recombinant HDM2 and HDMX
T1 construct: thioredoxin (N, cleaved yes); S tag (N, cleaved yes); hexahistidine (N, cleaved yes); made in house; host or cells: E. coli (inferred: pET32-LIC vector, handled as described for HDM2 in BL21(DE3))
T1 sequence (O15151 1-490): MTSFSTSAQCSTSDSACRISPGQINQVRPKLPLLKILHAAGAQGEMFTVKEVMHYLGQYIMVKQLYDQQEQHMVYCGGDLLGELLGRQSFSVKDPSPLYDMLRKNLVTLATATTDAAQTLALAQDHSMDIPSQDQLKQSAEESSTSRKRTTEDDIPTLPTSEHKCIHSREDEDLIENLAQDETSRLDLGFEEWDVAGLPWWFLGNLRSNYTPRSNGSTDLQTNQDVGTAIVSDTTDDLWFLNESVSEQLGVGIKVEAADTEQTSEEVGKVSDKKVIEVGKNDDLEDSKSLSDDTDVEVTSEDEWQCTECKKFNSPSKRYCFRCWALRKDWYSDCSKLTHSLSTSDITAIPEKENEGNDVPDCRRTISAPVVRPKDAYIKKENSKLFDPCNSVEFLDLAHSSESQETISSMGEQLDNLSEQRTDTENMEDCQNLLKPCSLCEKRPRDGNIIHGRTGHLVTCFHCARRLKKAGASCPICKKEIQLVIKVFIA

EOL-1 cells = assay: LDH release assay, EOL-1; format: cell-based; settings: EOL-1, 90 minutes after peptide treatment, highest dosing level
Experimental: as §1, §2

[4] = target: T2, recombinant HDM2 (amino acids 17-125 of SEQ ID NO:103) (human, UniProt Q00987 17-125); assay: streptavidin pull-down of biotinylated peptide with recombinant HDM2 and HDMX (1:1 mixture per paragraph 301), western blot
T2 construct: also called MDM2; not shown: thrombin cleavage site (pET28a vector)
T2 sequence (Q00987 other isoform, or with tags, fused parts or gaps): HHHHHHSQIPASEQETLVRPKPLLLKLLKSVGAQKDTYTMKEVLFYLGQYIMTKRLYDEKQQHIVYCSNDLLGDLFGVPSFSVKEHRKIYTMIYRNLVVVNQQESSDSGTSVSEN

COC(=O)CC[C@@H]1NC(=O)[C@H](CCC(N)=O)NC(=O)[C@H](C)NC(=O)[C@H](Cc2c[nH]c3ccccc23)NC(=O)[C@H](Cc2ccc(O)cc2)NC(=O)[C@H](CCC(=O)O)NC(=O)[C@](C)(NC(=O)[C@H](Cc2ccccc2)NC(=O)[C@@H](NC(=O)[C@H](CC(C)C)NC(C)=O)[C@@H](C)O)CCCCCCC=CCCC[C@@](C)(C(=O)N[C@@H](CO)C(=O)N[C@@H](C)C(=O)N[C@@H](C)C(N)=O)NC1=O [ATSP-7041 B26E(OMe), LTF8EYWAQ#XSAA]
cancer cell cytotoxicity (OCI-AML2 cells [1]): dose-responsive cancer cell cytotoxicity; also recorded: enhance killing activity | cancer cell cytotoxicity (EOL-1 cancer cells): dose-responsive cancer cell cytotoxicity; also recorded: enhance killing activity | non-specific membrane disruption (LDH release) (OCI-AML2 cells [2]): no non-specific membrane disruptive activity | HDMX versus HDM2 binding selectivity [3]: selectivity to HDMX | non-specific membrane disruption (LDH release) (EOL-1 cells): no non-specific membrane disruptive activity

B1: SAH-p53-8 L26E (peptide)
peptide: Biotin-QSQQTF[R8]NLWRLE[S5]QN-NH2
modifications: staple 7-14
notes: also called QSQQTF8NLWRLEXQN
binding result [4]: no binding
